Assay results published in US20180235912A1, “PHARMACEUTICAL COMPOSITION FOR PREVENTING OR TREATING AUTOIMMUNE DISEASES COMPRISING THIOUREA DERIVATIVE” (SEOUL NATIONAL UNIVERSITY R & DB FOUNDATION, priority 2015, published 2018).

Key:
peritoneal macrophages [1] = test: Transcription of M2 anti-inflammatory genes in primarily cultured intraperitoneal macrophages, real-time PCR; format: cell-based; settings: mouse intraperitoneal macrophages, 20 ng/mL IL-4, 20 μM, 24 hours
Protocol: Peritoneal macrophages of 7 to 8-week-old C57BL/6 male mice were isolated, seeded in a 24-well dish at a density of 1×10^6 cells/well, and then cultured for 4 hours in an RPMI1640 medium supplemented with 10% fetal bovine serum (FBS). A peritoneal macrophage culture broth was treated with each of 20 ng/mL of IL-4 and 20 μM JC1-40 or JC1-42, as indicated herein, for 24 hours. Thereafter, mRNA expression levels of the M2 anti-inflammatory markers, such as IL-10, Arg1, Retnla, and CD206, […], were measured using a real-time PCR (i.e., real-time reverse transcriptase-polymerase chain reaction; quantitative polymerase chain reaction) assay. In this case, the peritoneal macrophages were kept at 37° C. in a thermo-hygrostat chamber in which 5% CO2 and 95% air were maintained.

peritoneal macrophages [2] = test: Transcription of inflammatory genes in primarily cultured intraperitoneal macrophages, real-time PCR; format: cell-based; settings: mouse intraperitoneal macrophages, 10 ng/mL LPS, 20 μM, 24 hours
Protocol: (§1) Peritoneal macrophages of 7 to 8-week-old C57BL/6 male mice were isolated, seeded in a 24-well dish at a density of 1×10^6 cells/well, and then cultured for 4 hours in an RPMI1640 medium supplemented with 10% fetal bovine serum (FBS). A peritoneal macrophage culture broth was treated with each of 10 ng/mL of LPS and 20 μM JC1-40 or JC1-42, as indicated herein, for 24 hours. In this case, the peritoneal macrophages were kept at 37° C. in a thermo-hygrostat chamber in which 5% CO2 and 95% air were maintained.
First, mRNA expression levels of the inflammatory markers, such as TNF-α, NOS2, IL-1β, and IL-6, which induce rheumatoid arthritis, were measured using a real-time PCR (i.e., real-time reverse transcriptase-polymerase chain reaction; quantitative polymerase chain reaction) assay. As a result, it can be seen that the mRNA levels of TNF-α, NOS2, IL-1β and IL-6, which are involved in the induction of inflammation, in the intraperitoneal macrophages were reduced when the cells were treated with JC1-40 or JC1-42, as shown in FIG. 2.

[3] = test system: Raw 264.7 macrophage cell line; test: Transcription of inflammatory genes in LPS-treated macrophage cell line, real-time PCR; format: cell-based, mouse; settings: Raw 264.7, 50 ng/mL LPS, 20 μM, 24 hours
Protocol: A mouse macrophage cell line Raw 264.7 (ATCC TIB-71) was purchased from the American Type Culture Collection (ATCC). Raw 264.7 cells (2×10^5 cells/well) were seeded in a 6-well culture dish, and cultured for a day in a Dulbecco's modified Eagle's medium (DMEM) supplemented with 10% fetal bovine serum (FBS). The Raw 264.7 cells were kept at 37° C. in a thermo-hygrostat chamber in which 5% CO2 and 95% air were maintained. After the culturing, the cells were treated with 50 ng/mL of lipopolysaccharides (LPS) and 20 μM JC1-40 for 24 hours. Then, mRNA expression levels of the inflammatory markers, such as TNF-α, NOS2, IL-1β, and IL-6, which induce rheumatoid arthritis, were measured using a real-time PCR (i.e., real-time reverse transcriptase-polymerase chain reaction; quantitative polymerase chain reaction) assay.

peritoneal macrophages [4] = test: M1 differentiation of intraperitoneal macrophages, PE-CD80 flow cytometry; format: cell-based; settings: mouse intraperitoneal macrophages, 10 ng/mL LPS, 20 μM, 24 hours
Protocol: as §1
Further, a PE-CD80 antibody (eBioscience), which is a M1 marker for recognizing a change of M1 cells, was incubated in these cells for 30 minutes, and then subjected to flow cytometry. As a result, it was confirmed that the M1 differentiation was suppressed when the macrophages were treated with JC1-40, as shown in FIG. 3.

[5] = test system: human peripheral blood mononuclear cells (PBMCs); test: Th17 and Treg differentiation of CD4+ cells from PBMCs, flow cytometry; format: cell-based; settings: human CD4+ cells from PBMCs, 10, 20 and 40 μM, Th17 conditions 3 days
Protocol: CD4+ cells were isolated from peripheral blood mononuclear cells (PBMCs) of a healthy human, pre-treated with a varying concentration (10, 20, and 40 μM) of JC1-40, and then cultured for 3 days under Th17 differentiation conditions (including 0.5 μg/mL of anti-CD3, 0.5 μg/mL of anti-CD28, 10 μg/mL of anti-IFN-γ, 10 μg/mL of anti-IL-4, 20 ng/mL of IL-6, and 20 ng/mL of IL-1β). The expression of Th17 (anti IL-17 PE) and Treg (Anti Foxp3-FITC) in these cells was confirmed using flow cytometry. Also, an amount of IL-17 in these supernatants was measured using ELISA.

[6] = test system: CD4+ T cells from spleens; test: IL-17 secretion of spleen T cells, sandwich ELISA of culture supernatant; format: cell-based; settings: mouse spleen CD4+ T cells, Th17 conditions
Protocol: CD4+ T cells were isolated from the spleens of 7 to 8-week-old C57BL/6 male mice, seeded in a 48-well dish at a density of 5×10^5 cells/well, pre-treated with a varying concentration of JC1-40 (0.1, 0.5, 10, and 50 μM) for 24 hours, and then cultured for a day in an RPMI1640 medium supplemented with 10% fetal bovine serum (FBS). After the culturing, the cells were cultured for 3 days under Th17 differentiation conditions (including 0.5 μg/mL of an anti-CD3 antibody, 1 μg/mL of an anti-CD28 antibody, 2 ng/mL of TGF-β, 20 ng/mL of IL-6, 10 μg/mL of anti-IL-4, and 10 μg/mL of anti-IFN-γ). Thereafter, the cells were collected, washed with a FACS buffer for flow cytometry, and then blocked at 4° C. for 15 minutes to inhibit non-specific binding. As a cell surface marker, an antibody against CD4 (anti-CD4-PerCP) was added thereto, and reacted at 4° C. for 30 minutes, and the resulting reaction mixture was washed with a perm wash buffer. […] A change of the stained cells was analyzed using flow cytometry.
In addition, a culture supernatant of the JC1-40-treated Th17 cells was collected to determine an amount of IL-17 using a sandwich ELISA method. […] Then, a PNPP/DEA solution was added thereto, and developed color, and the optical density was then measured at a wavelength of 405 nm.

[7] = test system: CD4+ T cells from spleens; test: Th17 differentiation of primarily cultured spleen T cells, flow cytometry; format: cell-based; settings: mouse spleen CD4+ T cells, 0.1, 0.5, 10 and 50 μM, Th17 conditions 3 days
Protocol: CD4+ T cells were isolated from the spleens of 7 to 8-week-old C57BL/6 male mice, seeded in a 48-well dish at a density of 5×10^5 cells/well, pre-treated with a varying concentration of JC1-40 (0.1, 0.5, 10, and 50 μM) for 24 hours, and then cultured for a day in an RPMI1640 medium supplemented with 10% fetal bovine serum (FBS). After the culturing, the cells were cultured for 3 days under Th17 differentiation conditions (including 0.5 μg/mL of an anti-CD3 antibody, 1 μg/mL of an anti-CD28 antibody, 2 ng/mL of TGF-β, 20 ng/mL of IL-6, 10 μg/mL of anti-IL-4, and 10 μg/mL of anti-IFN-γ). Thereafter, the cells were collected, washed with a FACS buffer for flow cytometry, and then blocked at 4° C. for 15 minutes to inhibit non-specific binding. As a cell surface marker, an antibody against CD4 (anti-CD4-PerCP) was added thereto, and reacted at 4° C. for 30 minutes, and the resulting reaction mixture was washed with a perm wash buffer. After a Cytofix/Cytoperm process was performed at 4° C. for 20 minutes, the mixture was washed with a perm wash buffer. Anti-IL-17 PE was added thereto, and reacted at 4° C. for 30 minutes, and the resulting reaction mixture was washed with a perm wash buffer. A change of the stained cells was analyzed using flow cytometry.

[8] = test system: osteoclast precursor differentiated from human PBMCs; test: Osteoclast differentiation-related factor expression in osteoclast precursor from PBMCs, real-time PCR; format: cell-based; settings: M-CSF 25 ng/mL, RANKL 30 ng/mL, 10, 20, 40 μM
Protocol: PBMCs of a healthy human were isolated, stimulated with M-CSF (25 ng/mL) for 3 days to induce differentiation into an osteoclast precursor. After 3 days, a medium was replaced with a fresh one, and the cells were stimulated with varying concentrations of M-CSF (25 ng/mL), RANKL (30 ng/mL), and JC1-40 (10, 20, 40 μM), and cultured for 3 days. After the medium was replaced every 3 days, the same stimulus was applied to the cells while a differentiation state of the cells was observed.
RNA was isolated from the differentiated cells, and synthesized into cDNA. Thereafter, a change in mRNA expression levels of the osteoclast differentiation-related factors, Cathepsin K and TRAP, was analyzed using real-time PCR.

EL4 cell line [9] = test: RORα and IL-17 transcription in T cell line under Th17 differentiation conditions, real-time PCR; format: cell-based, mouse; settings: EL4, 20 μM pre-treatment 24 hours, Th17 differentiation conditions 48 hours
Protocol: A mouse T cell EL4 cell line (5×10^5 cells/well) was seeded in a 24-well culture dish, pre-treated with 20 μM JC1-40 for 24 hours, and cultured for a day in a RPMI 1640 medium supplemented with 10% FBS. The EL4 cell line was kept at 37° C. in a thermo-hygrostat chamber in which 5% CO2 and 95% air were maintained. After the culturing, the cells were cultured for 48 hours under Th17 differentiation conditions (including 0.5 μg/mL of an anti-CD3 antibody, 1 μg/mL of an anti-CD28 antibody, 2 ng/mL of TGF-β, 20 ng/mL of IL-6, 10 μg/mL of anti-IL-4, and 10 μg/mL of anti-IFN-γ). Expression levels of RORα, which is a JC1-40-activated nuclear receptor, and IL-17, which is an inflammatory marker inducing rheumatoid arthritis, were measured using a real-time PCR (i.e., real-time reverse transcriptase-polymerase chain reaction; quantitative polymerase chain reaction) assay.

[10] = test system: type II collagen-induced arthritis (CIA); test: Type II collagen-induced arthritis (CIA) animal model; format: in vivo, mouse; settings: DBA male mice
Protocol: 6-week-old DBA male mice were inoculated with bovine CII (Chondrex Inc.) emulsified in CFA (Chondrex Inc.), and re-inoculated after 15 days to induce rheumatoid arthritis. After the first administration, JC1-40 dissolved in 0.5% carboxymethyl cellulose (CMC) was continuously orally administered three times a week to the mice at a dose of 10 mg/kg. A 0.5% CMC vehicle and 5 mg/kg of Enbrel as the positive control were administered to the other groups in the same manner. The ratio of the population of the mice developing an arthritic disease was calculated as incidence, and the arthritic tissues were pathophysiologically examined to calculate a degree of progression of the disease as a score and compare conditions of the rheumatoid arthritis disease between the groups. The clinical scores were evaluated using a clinical scoring system which scores the swelling and redness in feet or tail regions by observing arthritis lesions of mice with the naked eye every day to check a degree of progression of inflammatory diseases in the joints.

EL4 cell line [11] = test: Foxp3 expression in T cell line, immunostaining and confocal microscopy; format: cell-based, mouse; settings: EL4, 20 μM, Th17 differentiation conditions, confocal microscopy
[12] = 10 mg/kg orally three times a week

Row | Structure (SMILES) | transcription level of Arg1 (peritoneal macrophages [1]) | transcription level of CD206 (peritoneal macrophages [1]) | transcription level of IL-10 (peritoneal macrophages [1]) | transcription level of Retnla (peritoneal macrophages [1]) | mRNA level of IL-1β (peritoneal macrophages [2]) | mRNA level of IL-6 (peritoneal macrophages [2]) | mRNA level of NOS2 (peritoneal macrophages [2]) | mRNA level of TNF-α (peritoneal macrophages [2]) | further results
1 | CNC(=S)NCc1ccc(Oc2ccccc2)cc1 [JC1-42, 1-(4-phenoxy-benzyl)-3-methyl-thiourea] | increased | increased | increased | increased | reduced | reduced | reduced | reduced | –
2 | CNC(=S)NCc1ccc(OCc2ccccc2)cc1 [JC1-40, 1-(4-benzyloxy-benzyl)-3-methyl-thiourea] | increased | increased | increased | increased | reduced | reduced | reduced | reduced | transcription level of IL-1β [3]: reduced; transcription level of IL-6 [3]: reduced; transcription level of NOS2 [3]: reduced; transcription level of TNF-α [3]: reduced; M1 differentiation (CD80 marker) (peritoneal macrophages [4]): suppressed; amount of (FOXP3 positive) cells differentiated into Treg [5]: increased; amount of (IL-17 positive) T cells differentiated into Th17 [5]: decreased; amount of secreted IL-17 protein in the culture broth [6]: reduced; amount of IL-17 positive cells differentiated into Th17 [7]: decreased; expression of osteoclast differentiation-related factors (Cathepsin K and TRAP mRNA) [8]: significantly reduced; transcription level of IL-17 (EL4 cell line [9]): decreased; transcription level of the nuclear receptor RORα (EL4 cell line [9]): increased; arthritis incidence [10, 12]: suppressed; arthritis scores [10, 12]: suppressed; effect compared to Enbrel (positive control) ([10]; 10 mg/kg orally vs 5 mg/kg Enbrel): superior effect; expression level of Foxp3 (EL4 cell line [11]): increased
